Laboratory results taken from patent US6660734B1, “Oxazinones having antibacterial activity” (Simon Fraser University, priority 1997, dated 2003).

Legend:
Micrococcus luteus = test: Filter disc bioassay on agar plates seeded with Micrococcus luteus; type: cell-based; settings: for ZONE SIZE: M. luteus, overnight 37° C.
Experimental: Samples were applied to filter discs in the amounts indicated. The discs were applied to agar plates seeded with Micrococcus luteus, and the plates were incubated overnight at 37° C. The results are illustrated in FIG. 5 and summarized in the following Table 1: Samples were assayed as in Example 3, with the results summarized in the following Table 2: […]

tuberculosis bacilli = settings: according to Khomutov; cited from earlier work
[1] = tested on: glutamate-aspartate transaminase; settings: according to Khomutov; cited from earlier work

Compound: CC1=C(C(=O)O)N2C(=O)[C@@H](NC(=O)Cc3ccccc3)[C@H]2SC1 [desacetoxycephalosporin G]
- ZONE SIZE (Micrococcus luteus; Table 2, 2.5 micrograms on filter disc): 2.5 cm

Compound: NC1CCONC1=O (racemic) [cyclocanaline, 4-amino-tetrahydro-1,2-oxazin-3-one]
- activity against tuberculosis bacilli (tuberculosis bacilli): exhibits activity against tuberculosis bacilli
- inhibition of glutamate-aspartate transaminase [1]: known to lnhibit glutamate-aspartate transaminase

Compound: CC1(C)S[C@@H]2[C@H](NC(=O)Cc3ccccc3)C(=O)N2[C@H]1C(=O)O [penicillin G]
- ZONE SIZE (Micrococcus luteus; Table 1, 0.1 micrograms on filter disc): 1.6 cm

Compound: O=C(O)CN1OC=C(O)CC1=O [Example 1, 2-Carboxymethyl-5-hydroxy-1,2-oxazin-3-one]
- antibacterial activity (Micrococcus luteus; in words, from Tables 1 and 2): weak antibacterial activity
- antibacterial activity, times less than that of penicillin (Micrococcus luteus; relative to penicillin, from Tables 1 and 2): at least 1000 times

Compound: CC(CN1OC=C(O)CC1=O)C(=O)O (stereo not shown) [Example 2, 2-[2-Carboxypropyl]-5-hydroxy-1,2-oxazin-3-one]
- activity, times the activity of the carboxymethyl product (Micrococcus luteus; relative to product of Example 1, from Tables 1 and 2): approximately 50 times
